Source: patent publication US20250263774A1, “DISCOVERING NEW XENOBIOTIC SUBSTRATES OF AN UDP-GLYCOSYLTRANSFERASE WITH A HIGH-THROUGHPUT METHOD” (priority 2024, published 2025)

How the values were obtained:
UGT71G1 [1] = conditions: previous studies; cited from earlier work
[2] = patients that administer irinotecan; SN-38 excreted into the intestines via bile; cited from earlier work
UGT71G1 [3] = test: LC-MS/MS analysis of substrates and glycosylated products of the UGT71G1 reaction; format: biochemical, Medicago truncatula; conditions: for validation as UGT71G1 substrate (glycosylated product detected): substrate 10 μM, UDP-glucose 50 μM, pH 7.4, 37° C., 2 hours 3HF, 4 hours SN-38, 24 hours BPA
Experimental: Liquid chromatography-coupled mass spectrometric analysis of substrates and products. The glycosylation reaction for plant UGT71G1 enzyme extracted from E. coli BL21(DE3) cells containing UGT71G1-pET28a was performed similar to the glucuronidation reaction as those published previously 17 with minor modification. Briefly, the enzyme UGT71G1 (final concentration 0.05-0.5 μg/ml) was mixed with UDP-glucose (50 μM) and substrate (final concentration 10 μM) in 50 mM potassium phosphate buffer (pH 7.4) to reach a final volume of 200 μL. This reaction mixture was incubated at 37° C. and at various time points for each substrate to obtain the highest product-to-substrate ratio: 2 hours for 3HF, 4 hours for SN-38, and 24 hours for BPA; reactions were ended with the addition of 200 μL methanol. The samples were centrifuged at 14000 rpm for 15 mins and supernatant was subjected to UPLC-MS/MS system for analysis after appropriate dilution with 50% MeOH solution.
LC-MS/MS analysis was performed with an EXIONLC™ UHPLC system coupled with API 5500 Q-Trap triple quadrupole mass spectrometer. A BEH C18 column (50×2.1 mm I.D., 1.7 μm, Waters, Milford, MA, USA) was used for liquid chromatography. For mobile phase, mobile phase A (MPA) was 0.1% formic acid in water and mobile phase B (MPB) was 100% acetonitrile; flow rate was 0.45 mL/min with a column temperature of 45° C. An amount of 10 μL sample was injected for each analysis and it was eluted with the following mobile phase profile: 0-0.5 min, 5-10% MPB, 0.5-1.5 min, 10-40% MPB, 1.5-4.0 min, 40-90% MPB, 4.0-4.4 min, 90% MPB, 4.4-4.6 min, 90-5% MPB, 4.6-5.0 min, 5% MPB. Gradient mobile phase for mycophenolic acid and metabolites: 0-1.0 min, 5-20% MPB, 1.0-1.5 min, 20% MPB, 1.5-4.0 min, 20-40% MPB, 4.0-5.0 min, 40-90% MPB, 5.0-5.5 min, 90-5% MPB, 5.5-6.0 min, 5% MPB.
To validate our results from the high-throughput fluorescent assay, a liquid chromatography-coupled tandem mass spectrometric (LC-MS/MS) method was used to monitor the reaction of UGT71G1 with 3-hydroxyflavone, bisphenol A, and SN-38.

UGT71G1 [4] = test: High-throughput fluorescent assay for screening candidates of UGT glycosylation (UDP release, MicroMolar UDP assay kit); format: biochemical, Medicago truncatula; conditions: 6 μg UGT71G1, UDP-glucose 50 μM, substrate candidate 0.8 to 160 μM, 37° C. 45 minutes, ex 485 nm / em 535 nm
Experimental: High-throughput fluorescent assay for screening candidates of UGT glycosylation. Characterization of UDP formation involved the MicroMolar UDP assay kit (ProFoldin). For each reaction, reagents used from this kit include 3 μL of 10× buffer, 0.3 μL of 100×MUD reagent 1, and 0.3 μL of 100×MUD reagent 2. […] Each sample was then mixed with 30 μL of 1× fluorescence dye from the MICROMOLAR UDP assay kit and fluorescence was measured immediately with a BIOTEK SYNERGY H1 M florescence microplate reader at excitation 485 nm and emission 535 nm.
For a high-through method to robustly detect UGT activities with different glycosyl acceptor, it is necessary to target a change that is independent from the acceptor molecule. UDP-glycosyltransferases take UDP-glucose as a co-substrate; while the glucosyl moiety is transferred to the acceptor molecule, UDP is released as a by-product (FIG. 1A). Thus, UGT activities can be detected by the rise in UDP level in the reaction mixture. In our method to monitor an increase in UDP concentration, the UGT71G1 enzymatic reaction was coupled to the UDP assay kit, in which the release of UDP leads to an increase in fluorescence intensity.

| Structure (SMILES) | glycosylation of hydroxyl groups by UGT71G1 (UGT71G1 [1]) | validation as UGT71G1 substrate (glycosylated product detected) (UGT71G1 [3]) | further results |
| --- | --- | --- | --- |
| COc1ccc(-c2coc3cc(O)cc(O)c3c2=O)cc1 [Sample 130, Biochanin A] | glycosylates multiple hydroxyl groups |  |  |
| CCc1c2c(nc3ccc(OC(=O)N4CCC(N5CCCCC5)CC4)cc13)-c1cc3c(c(=O)n1C2)COC(=O)[C@]3(O)CC [irinotecan] |  |  | patients experiencing diarrhea [2]: 25% |
| CC(C)(c1ccc(O)cc1)c1ccc(O)cc1 [Sample 135, Bisphenol A] |  | validated | products formed in the reaction catalyzed by UGT71G1 (UGT71G1 [3]; BPA 10 μM, 24 hours, major monoglycosylated, minor diglycosylated): two products |
| O=c1c(-c2ccc(O)cc2)coc2cc(O)cc(O)c12 [Sample 88, Genistein] | glycosylates multiple hydroxyl groups |  |  |
| O=c1c(O)c(-c2ccccc2)oc2ccccc12 [Sample 26, 3-Hydroxyflavone] |  | validated | fold increase in fluorescent signal / fluorescence intensity with UGT71G1, comparing to the condition without UGT71G1 (UGT71G1 [4]): 30 fold |
| CCc1c2c(nc3ccc(O)cc13)-c1cc3c(c(=O)n1C2)COC(=O)[C@]3(O)CC [Sample 58, 7-Ethyl-10-hydroxycamptothecin] |  | validated |  |
